Test results as given in article PMC7022573, “Development of Level A In Vitro–Vivo Correlation for Electrosprayed Microspheres Containing Leuprolide: Physicochemical, Pharmacokinetic, and Pharmacodynamic Evaluation” (Pharmaceutics, 2020).

What was measured:
[1] = rat, in vivo, sc; cited from earlier work
Description: The IVIVC model development in this study was carried out using Berkeley Madonna (program version 8.3.14). Differences in PK profiles by formulations were evaluated by adding a release compartment to reflect the release characteristic.

[2] = Solvent selection for the drug phase: dissolution of leuprolide; format: physicochemical
Description: Solubility, viscosity, spray pattern, and density of polymer solution were investigated using four solvents (methylene chloride, acetonitrile, ethyl acetate, and acetone), and the optimal solvent was selected from among these. Parameters including dissolution of the leuprolide, miscibility with the solvent of polymer phase, drying degree of dry matter, and density of drug solution were investigated using three solvents (water, ethanol, and methanol), and the optimal solvent was selected.

Q: What does the source list for `CCNC(=O)[C@@H]1CCCN1C(=O)[C@H](CCCNC(=N)N)NC(=O)[C@H](CC(C)C)NC(=O)[C@@H](CC(C)C)NC(=O)[C@H](Cc1ccc(O)cc1)NC(=O)[C@H](CO)NC(=O)[C@H](Cc1c[nH]c2ccccc12)NC(=O)[C@H](Cc1c[nH]cn1)NC(=O)[C@@H]1CCC(=O)N1` [leuprolide]?
A: CL (clearance) [1]: 514.46 mL/h; Vd (volume of distribution) [1]: 487.40 mL; ka (absorption rate constant) [1]: 16.67 h⁻¹; Dissolution of Leuprolide ([2]; solvent ethanol): dissolves leuprolide slowly, and the drug easily precipitated; Dissolution of Leuprolide ([2]; solvent methanol): high solubility; Dissolution of Leuprolide ([2]; solvent water): high solubility
